{"source": "patent US10064843B2", "about": "“Bis-amide derivative and use thereof” (University-Industry Cooperation Group of Kyung Hee …, priority 2013, dated 2018)", "key": {"HCV replicon cell [1]": {"tested_on": "HCV replicon cell", "assay": "Combined treatment: MTT analysis in HCV replicon cell", "assay_type": "cell-based, human", "experimental": "(§1) Example 9: Analysis of Cytotoxicity\n(§2) Cytotoxicity was analyzed in a 96-well plate using 5 mg/mL of MTT (3-(4,5-dimethylthiasol-2-yl)-2,5-diphenyltetrazolium bromide). The optical density of cells was measured at 550 nm using a microplate reader (Bio-Rad, Richmond, Calif., USA). Cell viability rate was expressed in percentage of the absorbance of treated cells relative to the absorbance of untreated cells."}, "[2]": {"molecular_target": "T1, GST-CypA and NS5A or NS5B (Homo sapiens, UniProt P62937)", "T1 construct": "made in house; host or cells: E. coli (pGEX-KG)", "T1 sequence (P62937 whole entry)": "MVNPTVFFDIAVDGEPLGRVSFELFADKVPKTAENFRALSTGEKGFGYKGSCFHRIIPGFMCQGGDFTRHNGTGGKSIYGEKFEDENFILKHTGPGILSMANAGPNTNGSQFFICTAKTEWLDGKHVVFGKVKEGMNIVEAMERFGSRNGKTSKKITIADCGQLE", "assay": "GST pull-down assay of CypA with NS5A or NS5B", "assay_type": "binding", "conditions": "2 μM and 4 μM; FIG. 12b", "experimental": "Example 15: Expression and Purification of GST Proteins\nA plasmid pGEX-KG was used for the expression of recombinant proteins in E. coli. GST-CypA, a mutant GST-CypAR55A (a mutation at PPIase site), GST-CypB, GST-NS5A, and the full length GST-NS5B were prepared by a standard replication process. The bacteria expression vector, pGEX-KG, was transformed into TOPIOF cells (Promega, Madison, Wis., USA). The bacteria culture was grown in LB medium containing 100 μg/mL of ampicillin until the optical density at 600 nm reached 0.8 to 1.0. Then, 0.1 mM isopropyl β-D-1-thiogalactopyranoside (IPTG) was added thereto to induce the expression of a GST fusion protein and incubated further at 30° C. for 4 hours. The resulting bacteria was pelleted by centrifugation at 340 g for 20 minutes at 4° C., resuspended in 10 mL PBST (PBS containing 1% Triton X-100), added with 1 mM PMSF, and subjected to sonication at 25% amplitude with a brake at intervals of 10 seconds for 30 minutes. Upon sonication, the bacteria extract was centrifuged at 340 g for 5 minutes at 4° C. and the supernatant containing GST protein was stored at −80° C. The GST fusion protein was cleaved in thrombin-cleaving buffer containing 50 units of thrombin overnight so that the recombinant proteins could be released from the GST-tagged glutathione resin. […]"}, "HCV replicon cell [3]": {"tested_on": "HCV replicon cell", "assay": "Combined treatment: HCV replicon RNA level by qRT-PCR, synergy analysis", "assay_type": "cell-based, hepatitis C virus", "conditions": "in combination with telaprevir, IFN-α, or ribavirin vs. each alone; FIG. 16", "experimental": "Example 19: Real-Time Quantitative Reverse Transcriptase PCR Analysis\nReal-time quantitative reverse transcriptase PCR (qRT-PCR) was performed using SYBR Green PCR Master Mix (Invitrogen/Applied Biosystem, Carlsbad, Calif., USA) and ABI Prism 7300 Real-time PCR System (Applied Biosystems, Carlsbad, Calif., USA) according to the manufacturer's instructions. Calculations were performed based on […] method using the following equation: R (ratio)=2-[ΔCT (sample)-ΔCT (control group)]. The data were expressed as fold change of the treated group relative to the control group and standardized relative to the glyceraldehyde 3-phosphate dehydrogenase (GAPDH) level.\nExample 20: Synergy Analysis\nIn order to confirm whether the combination between NIM811 and IFN-α, ribavirin, or telaprevir is synergistic, additive, or antagonistic, the combination index (CI) was calculated using the CalcuSyn Software (Biosoft). In fact, the combination is additive when CI=1.0, synergistic when CI<1.0, and antagonistic when CI>1.0."}, "murine splenocytes": {"tested_on": "murine splenocytes", "assay": "MTT cytotoxicity in murine splenocytes", "assay_type": "cell-based, mouse", "conditions": "up to 10 μM; FIG. 8a", "experimental": "Example 3: Isolation of Splenocytes from Mice and Cell Culture\nSeven to eight week-old female Balb/c mice were purchased from Orient Bio, Inc. (Sungnam, Korea). Experimental animals were allowed to maintain at a non-pathogenic environment and adapted before the experiment. Experimental mice were sacrificed by dislocation of spine, and the spleens collected therefrom were removed into petri dishes filled with RPMI containing 10% FBS, 100 units/mL of penicillin, and 100 μg/mL of streptomycin. The spleens were dispersed through a nylon mesh to prepare a single cell suspension, and RBC was depleted by using RBC lysis buffer (Sigma, St. Louis, Mo.). Splenocytes were washed and cultured in RPMI complete medium.\nas §1, §2"}}}
{"compound": "COc1cc(C(C(=O)NC2CCCCC2)N(C(=O)Cc2c[nH]c3ccccc23)c2ccc(C(C)C)cc2)cc(OC)c1OC", "note": "(stereo not shown) [WJCPA-126, N-cyclohexyl-2-[(2-1H-indol-3-yl-acetyl)-(4-isopropyl-phenyl)-amino]-2-(3,4,5-trimethoxy-phenyl)-acetamide]", "values": [{"measurement": "cytotoxicity in combined treatment", "setting": "HCV replicon cell [1]; in combination with IFN-α, RBV, or telaprevir, FIG. 16a", "result": "did not show any noticeable cytotoxicity"}, {"measurement": "cell viability in combined treatment", "setting": "HCV replicon cell [1]; in combination with interferon-α, ribavirin, or telaprevir", "result": "≥ 80", "unit": "%"}, {"measurement": "serum ALT and AST", "setting": "Toxicity in BALB/c mice; 50 mg/kg for 2 weeks, FIG. 17b, 17c", "result": "No difference was observed"}, {"measurement": "safety parameters (body weight, serum ALT, AST, BUN, creatinine)", "setting": "Toxicity in BALB/c mice; 50 mg/kg intraperitoneally daily, 14 days, FIG. 17", "result": "did not induce any noticeable change on safety parameters"}, {"measurement": "binding between GST-CypA and NS5A or NS5B", "setting": "[2]", "result": "significant decrease of the binding between GST-CypA and NS5A or NS5B"}, {"measurement": "levels of HCV-specific RNA and IL-8 in combined treatment", "setting": "HCV replicon cell [3]", "result": "synergistic decrease"}, {"measurement": "cytotoxicity in mouse splenocytes", "setting": "murine splenocytes", "result": "no cytotoxicity"}]}
